Results on six compounds are retold here after patent US12435080B2, “sGC stimulators” (Tisento Therapeutics Inc., priority 2016, dated 2025).

Each structure is given as a SMILES string. Substitutions are numbered along the chain they refer to. Like-named read-outs stand apart in the source and are kept apart here.

One experiment deals with T1, sGC enzyme (Homo sapiens, UniProt Q02108+Q02153).
T1 construct: incorporated into these cells detect cGMP formed by the compounds stimulating the sGC enzyme; host or cells: HEK293 cells stably expressing GloSensor 40F cGMP biosensor
T1 sequence (Q02153 1-619): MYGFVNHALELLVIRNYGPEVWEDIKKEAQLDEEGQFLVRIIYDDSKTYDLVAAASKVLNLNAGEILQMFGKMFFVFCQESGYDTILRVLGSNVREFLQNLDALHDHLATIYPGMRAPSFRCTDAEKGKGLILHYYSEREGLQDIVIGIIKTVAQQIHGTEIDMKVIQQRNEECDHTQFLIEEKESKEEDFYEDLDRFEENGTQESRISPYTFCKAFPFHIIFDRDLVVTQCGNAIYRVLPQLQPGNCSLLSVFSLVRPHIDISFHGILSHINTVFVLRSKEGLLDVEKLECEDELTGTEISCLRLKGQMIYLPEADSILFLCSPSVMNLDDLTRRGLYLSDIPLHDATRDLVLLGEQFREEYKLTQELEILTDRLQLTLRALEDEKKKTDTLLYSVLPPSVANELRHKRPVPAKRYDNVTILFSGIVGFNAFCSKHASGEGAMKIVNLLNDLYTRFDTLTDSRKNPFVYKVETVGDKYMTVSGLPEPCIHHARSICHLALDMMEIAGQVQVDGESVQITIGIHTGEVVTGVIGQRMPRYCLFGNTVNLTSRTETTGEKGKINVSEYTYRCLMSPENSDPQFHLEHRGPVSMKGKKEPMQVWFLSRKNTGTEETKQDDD
T1 sequence (Q02108 1-690): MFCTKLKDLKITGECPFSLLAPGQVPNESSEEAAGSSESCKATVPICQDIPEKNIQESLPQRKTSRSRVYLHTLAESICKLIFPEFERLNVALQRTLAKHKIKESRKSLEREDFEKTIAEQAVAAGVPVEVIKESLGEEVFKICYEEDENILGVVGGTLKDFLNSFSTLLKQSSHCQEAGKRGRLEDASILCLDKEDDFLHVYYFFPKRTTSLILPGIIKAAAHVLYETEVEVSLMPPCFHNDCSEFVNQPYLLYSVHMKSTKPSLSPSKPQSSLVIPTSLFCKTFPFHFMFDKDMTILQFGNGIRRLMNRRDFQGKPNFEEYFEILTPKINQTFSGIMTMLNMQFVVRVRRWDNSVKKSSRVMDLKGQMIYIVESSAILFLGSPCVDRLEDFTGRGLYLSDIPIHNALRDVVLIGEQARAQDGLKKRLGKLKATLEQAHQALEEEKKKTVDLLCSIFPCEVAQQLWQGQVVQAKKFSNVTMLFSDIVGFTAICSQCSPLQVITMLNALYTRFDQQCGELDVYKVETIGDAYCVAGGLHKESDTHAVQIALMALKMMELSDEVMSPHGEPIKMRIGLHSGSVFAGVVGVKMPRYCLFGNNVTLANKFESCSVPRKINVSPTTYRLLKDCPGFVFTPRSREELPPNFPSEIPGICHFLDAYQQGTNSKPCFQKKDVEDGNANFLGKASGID
Description: cGMP GloSensor cell-based assay, 384-well format. To be noted: HEK293 cells expressing GloSensor 40F cGMP, 10 μM DETA-NONOate, normalized to 30 μM Compound Y. The gist of the method: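 HEK293 cells expressing GloSensor 40F cGMP luciferase biosensor, preloaded with 2 mM GloSensor substrate for 90 min at 25 °C. Endpoint luminescence read after 55 min compound incubation at room temperature.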

The next experiment addresses T2, sGC (Rattus norvegicus, UniProt P20595).
T2 construct: Rat primary neurons were isolated from fetuses of 18-day pregnant Sprague-Dawley females; endogenous in cells; host or cells: Primary rat hippocampal neurons (E18 Sprague-Dawley fetuses)
T2 sequence (P20595 1-619): T1 sequence (Q02153 1-619) with N171S, E205D, N247K, T299A, K615N, D618E, D619N
Description: cGMP neuronal cell-based assay. To be noted: rat primary hippocampal neurons, 30 μM DETA-NO, cGMP by LC-MS/MS, normalized to 10 μM Compound Y. How it is done:
Rat primary neurons were isolated from fetuses of 18-day pregnant Sprague-Dawley females. The fetuses were collected in Hanks' balanced salt solution (HBSS) and brains were rapidly removed. The cerebral hippocampi were isolated and mechanically fragmented. Further tissue digestion was performed with 0.25% (wt/vol) trypsin solution in HBSS without Ca2+ and Mg2+ for 15 min at 37° C. After trypsination, cells were washed and resuspended in neurobasal medium supplemented with 0.5 mM L-glutamine, 12.5 uM glutamic acid, 2% B-27 and 100U/mL penicillin, and 100 μg/mL streptomycin. Cells were plated at a density of 4×10^4 cells/well in a poly-D-lysine coated 384-well flat clear-bottom plate (Corning Cat No 354662). Cells were incubated 6-7 days at 37° C. in a humidified chamber with 5% CO2. Media was removed and cells were washed 1× with HBSS containing Ca2+ and Mg2+, and replaced with 40 uL HBSS containing 0.5 mM IBMX, and incubated for 15 minutes at 37° C. 10 uL of a 5× stock of test compounds with diethylenetriamine NONOate (DETA-NO) was added. Final concentration of DETA-NO was 30 μM. Cells were incubated for 20 min at 37° C. Medium was removed, 50 uL of ice-cold 10% acetic acid was added, and incubated for 60 minutes at 4° C. Following centrifugation at 4° C. for 5 minutes at 1000×g to pellet cell debris, the supernatant was aspirated to a clean plate and the samples were analyzed for cGMP content. cGMP concentrations were determined from each sample using LC-MS/MS.
Data were normalized to a high control using the following equation: 100*(Sample−Low Control)/(High Control−Low Control), where the low control is the average of 15 samples treated with 1% DMSO, and the high control is the average of 15 samples treated with 10 μM of the known sGC stimulator Compound Y (depicted in Example 2). Data were fit using a 4-parameter fit (log(agonist) vs. response—variable slope) using GraphPad Prism Software v.5. n=2 for all compounds. The Absolute EC50 was interpolated from the curve fit and is defined as the concentration at which a given compound elicits 50% of the high control response after data normalization. Compounds failing to elicit a minimum response of 50% are reported as >30 μM. For compounds run in duplicate or n higher than 2, the result herein given is the geometric mean of the several results obtained.

Where [1] appears, read: compounds in Table IB, read-out: Glo-sensor Abs EC50.
Setting [2] is: compounds in Table IB, read-out: sGC-Neuron Abs EC50.
[3] abbreviates: compounds in Table IA, read-out: Glo-sensor AbsEC50.
Setting [4] is: compounds in Table IA, read-out: sGC-neuron Abs EC50.

With `FC(F)(F)c1n[nH]c(-c2nc(Cc3cncnc3)c3cc(Cl)ccn23)n1` [Compound I-6, 7-Chloro-1-(pyrimidin-5-ylmethyl)-3-(3-(trifluoromethyl)-1H-1,2,4-triazol-5-yl)imidazo[1,5-a]pyridine], the EC50 was under 100 nM at sGC enzyme (setting [1]) and at most 100 nM on sGC (setting [2]).

On to `Fc1cnc2c(c1)c(-c1nc(C(F)(F)F)n[nH]1)nn2Cc1ccccc1F` [Compound I-8, 5-Fluoro-1-(2-fluorobenzyl)-3-(3-(trifluoromethyl)-1H-1,2,4-triazol-5-yl)-1H-pyrazolo[3,4-b]pyridine], for which the EC50 on sGC enzyme (setting [3]) is under 100 nM; on sGC (setting [4]), at most 100 nM.

In the case of `FC(F)(F)c1n[nH]c(-c2nc(CCC(F)(F)C(F)(F)F)c3ccccn23)n1` [Compound I-9], the EC50 on sGC enzyme (setting [1]) and on sGC (setting [2]) was 100 to 1000 nM throughout.

As to `Fc1cccc(Cc2nn(-c3nc(C(F)F)n[nH]3)c3cccnc23)c1F` [Compound I-127, 3-(2,3-Difluorobenzyl)-1-(3-(difluoromethyl)-1H-1,2,4-triazol-5-yl)-1H-pyrazolo[4,3-b]pyridine], the EC50 was 100 to 1000 nM on sGC enzyme (setting [3]) and at most 100 nM at sGC (setting [4]).

Take `Fc1ccc(F)c(Cc2nn(-c3nc(C(F)(F)F)n[nH]3)c3cccnc23)c1` [Compound I-130, 3-(2,5-Difluorobenzyl)-1-(3-(trifluoromethyl)-1H-1,2,4-triazol-5-yl)-1H-pyrazolo[4,3-b]pyridine]: the EC50 at sGC enzyme (setting [3]) is under 100 nM; on sGC (setting [4]), at most 100 nM.

For the compound `Fc1ccc(F)c(Cc2nn(-c3nc(C(F)F)n[nH]3)c3cccnc23)c1` [Compound I-131, 3-(2,5-Difluorobenzyl)-1-(3-(difluoromethyl)-1H-1,2,4-triazol-5-yl)-1H-pyrazolo[4,3-b]pyridine], the EC50 was under 100 nM on sGC enzyme (setting [3]) and at most 100 nM at sGC (setting [4]).
